Assay results from US4692443A, “3-bicyclicpyridinium-methyl cephalosporins” (Eli Lilly and Company, priority 1984, dated 1987).
≈ marks a conversion by molar mass, not a printed value. Read-outs that look alike come from different tables or passages of the source.

Experiments:
Format in all cases: cell-based
Salmonella X514 = test: standard in vitro agar dilution assay (MIC); conditions: Salmonella strain X514; read-out: Agar Dilution MIC
Strep. PN PARK = test: standard in vitro agar dilution assay (MIC); conditions: Strep. PN strain PARK
Strep. D 9960 = test: standard in vitro agar dilution assay (MIC); conditions: Strep. D strain 9960
H. influ. 76 = test: standard in vitro agar dilution assay (MIC); conditions: read-out: Agar Dilution MIC
[1] = tested on: Enterobacter aerogenes C32; test: standard in vitro agar dilution assay (MIC); conditions: Klebsiella aerogenes
Staph. aureus X400 = test: standard in vitro agar dilution assay (MIC); conditions: Staphylococcus aureus; Staph. aureus strain X400
H. influ. C.L. = test: standard in vitro agar dilution assay (MIC); conditions: read-out: Agar Dilution MIC
Staph. aureus S13E = test: microbe, parasite or virus in culture; conditions: Staphylococcus aureus, read-out: Agar Dilution MIC
Staph. epi EPI1 = test: standard in vitro agar dilution assay (MIC); conditions: Staph. epi strain EPI1
Staph. epi 222 = test: standard in vitro agar dilution assay (MIC); conditions: Staph. epi strain 222
Klebsiella X68 = test: standard in vitro agar dilution assay (MIC); conditions: Klebsiella, X68, read-out: Agar Dilution MIC
Enterobacter cloacae EB5 = test: standard in vitro agar dilution assay (MIC)
Klebsiella KAE = test: standard in vitro agar dilution assay (MIC); conditions: Klebsiella strain KAE; read-out: Agar Dilution MIC
E. coli N10 = test: standard in vitro agar dilution assay (MIC); conditions: Escherichia coli
Staph. aureus V41 = test: standard in vitro agar dilution assay (MIC); conditions: Staphylococcus aureus
Strep. D X66 = test: standard in vitro agar dilution assay (MIC); conditions: Strep. D strain X66
Staph. aureus X1.1 = test: standard in vitro agar dilution assay (MIC); conditions: Staphylococcus aureus; Staph. aureus strain X1.1; read-out: Agar Dilution MIC
Strep. A C203 = test: standard in vitro agar dilution assay (MIC); conditions: Strep. A strain C203
Serratia X99 = test: standard in vitro agar dilution assay (MIC)
Pseudomonas X528 = test: standard in vitro agar dilution assay (MIC); conditions: Pseudomonas strain X528
Excerpt: The antibacterial activity of several representative compounds of the invention has been evaluated in standard in vitro agar dilution assays. The following Table presents typical minimum inhibitory concentrations (MIC's) in μg /ml for exemplary compounds when evaluated against typical Gram + and Gram - microorganism.

Klebsiella X26 = test: standard in vitro agar dilution assay (MIC)
Pseudomonas X239 = test: standard in vitro agar dilution assay (MIC); conditions: Pseudomonas strain X239
E. coli TEM = test: standard in vitro agar dilution assay (MIC); conditions: Escherichia coli, read-out: Agar Dilution MIC
E. coli EC14 = test: standard in vitro agar dilution assay (MIC); conditions: Escherichia coli, EC14, read-out: Agar Dilution MIC
[2] = C32, read-out: Agar Dilution MIC
[3] = N10, read-out: Agar Dilution MIC
[4] = Staph. aureus strain V41, read-out: Agar Dilution MIC
[5] = Serratia strain X99, read-out: Agar Dilution MIC
[6] = Klebsiella strain X26, read-out: Agar Dilution MIC
[7] = Enterobacter aerogenes strain C32, read-out: Agar Dilution MIC
[8] = Enterobacter cloacae, EB5, read-out: Agar Dilution MIC
[9] = Serratia, X99, read-out: Agar Dilution MIC

Row | Compound | MIC (Salmonella X514) [µg/mL] | MIC (Strep. PN PARK) [µg/mL] | MIC (Strep. D 9960) [µg/mL] | MIC (H. influ. 76) [µg/mL] | MIC [1, 2] [µg/mL] | MIC (Staph. aureus X400) [µg/mL] | MIC (Staph. aureus S13E) [µg/mL] | MIC (Staph. epi EPI1) [µg/mL] | MIC (Staph. epi 222) [µg/mL] | MIC (Klebsiella X68) [µg/mL] | MIC (Klebsiella KAE) [µg/mL] | MIC (E. coli N10; [3]) [µg/mL] | MIC (Staph. aureus V41; [4]) [µg/mL] | MIC (Strep. D X66) [µg/mL] | MIC (Staph. aureus X1.1) [µg/mL] | MIC (Strep. A C203) [µg/mL] | MIC (Serratia X99; [5]) [µg/mL] | MIC (Pseudomonas X528) [µg/mL] | MIC (Klebsiella X26; [6]) [µg/mL] | MIC (Enterobacter cloacae EB5; [8]) [µg/mL] | further results
1 | CO/N=C(\C(=O)NC1C(=O)N2C(C(=O)[O-])=C(C[n+]3ccc4nc(C(C)(C)C)sc4c3)CSC12)c1csc(N)n1 (stereo not drawn) [Example 17, syn-7-[2-(2-aminothiazol-4-yl)-2-methoxyiminoacetamido]-3-(2-tert.-butylthiazolo[5,4-c]pyridinium-5-ylmethyl)-3-cephem-4-carboxylate] | 0.5 (≈ 0.851 µM) | 0.015 (≈ 0.0255 µM) | 4 (≈ 6.81 µM) | 0.125 (≈ 0.213 µM) | 0.5 (≈ 0.851 µM) | 32 (≈ 54.4 µM) | 8 (≈ 13.6 µM) | 4 (≈ 6.81 µM) | 1 (≈ 1.7 µM) | 0.5 (≈ 0.851 µM) | 4 (≈ 6.81 µM) | 0.5 (≈ 0.851 µM) | 4 (≈ 6.81 µM) | > 128 | 1 (≈ 1.7 µM) | 0.015 (≈ 0.0255 µM) | 1 (≈ 1.7 µM) | – | – | – | MIC (H. influ. C.L.): 0.25 µg/mL (≈ 0.425 µM); MIC (Enterobacter cloacae EB5; Enterobacter cloacae strain EB5, read-out: Agar Dilution MIC): 1 µg/mL (≈ 1.7 µM)
2 | CO/N=C(\C(=O)NC1C(=O)N2C(C(=O)[O-])=C(C[n+]3cccc4oc(N)nc43)CSC12)c1csc(N)n1 (stereo not drawn) [Example 10, syn-7-[2-(2-aminothiazol-4-yl)-2-methoxyiminoacetamido]-3-(2-aminooxazolo[4,5-b]pyridinium-4-ylmethyl)-3-cephem-4-carboxylate] | – | 0.015 (≈ 0.0283 µM) | 16 (≈ 30.2 µM) | 0.125 (≈ 0.236 µM) | – | 32 (≈ 60.3 µM) | 4 (≈ 7.54 µM) | 2 (≈ 3.77 µM) | 1 (≈ 1.88 µM) | – | 4 (≈ 7.54 µM) | 0.125 (≈ 0.236 µM) | 4 (≈ 7.54 µM) | > 128 | – | 0.015 (≈ 0.0283 µM) | – | 4 (≈ 7.54 µM) | 0.03 (≈ 0.0565 µM) | 0.25 (≈ 0.471 µM) | MIC [1, 7]: 0.125 µg/mL (≈ 0.236 µM); MIC (Pseudomonas X239): 2 µg/mL (≈ 3.77 µM); MIC (E. coli TEM; E. coli strain TEM): 0.03 µg/mL (≈ 0.0565 µM); MIC (Serratia X99; [9]): 0.125 µg/mL (≈ 0.236 µM)
3 | CC(C)(O/N=C(\C(=O)NC1C(=O)N2C(C(=O)[O-])=C(C[n+]3ccc4[nH]cnc4c3)CSC12)c1csc(N)n1)C(=O)O (stereo not drawn) [Example 1, syn-7-[2-(2-Aminothiazol-4-yl)-2-(2-carboxyprop-2-yl)oxyiminoacetamido]-3-(1H-imidazolo[4,5c]pyridinium-5-ylmethyl)-3-cephem-4-carboxylate] | 0.5 (≈ 0.852 µM) | – | 16 (≈ 27.3 µM) | – | – | 128 (≈ 218 µM) | 32 (≈ 54.6 µM) | 32 (≈ 54.6 µM) | 16 (≈ 27.3 µM) | 0.125 (≈ 0.213 µM) | 1 (≈ 1.7 µM) | 0.5 (≈ 0.852 µM) | – | > 128 | 8 (≈ 13.6 µM) | – | – | 8 (≈ 13.6 µM) | – | 0.25 (≈ 0.426 µM) | MIC (Klebsiella X26; Klebsiella, X26, read-out: Agar Dilution MIC): 0.125 µg/mL (≈ 0.213 µM); MIC [1, 7]: 1 µg/mL (≈ 1.7 µM); MIC (H. influ. C.L.; H. influ. strain C.L.): 0.03 µg/mL (≈ 0.0511 µM); MIC (Pseudomonas X239): 2 µg/mL (≈ 3.41 µM); MIC (E. coli TEM): 0.125 µg/mL (≈ 0.213 µM); MIC (Staph. aureus V41; V41, read-out: Agar Dilution MIC): 32 µg/mL (≈ 54.6 µM); MIC (E. coli EC14): 0.125 µg/mL (≈ 0.213 µM); MIC (Serratia X99; [9]): 0.5 µg/mL (≈ 0.852 µM)
4 | CO/N=C(\C(=O)NC1C(=O)N2C(C(=O)[O-])=C(C[n+]3ccc4[nH]c(-c5ccccc5)nc4c3)CSC12)c1csc(N)n1 (stereo not drawn) [Example 9, syn-7-[2-(2-aminothiazol-4-yl)-2-methoxyiminoacetamido]-3-(2-phenyl-1H-imidazolo[4,5-c]pyridinium-5-ylmethyl)-3-cephem-4-carboxylate] | 0.5 (≈ 0.847 µM) | < 0.008 | 4 (≈ 6.77 µM) | – | 0.5 (≈ 0.847 µM) | 32 (≈ 54.2 µM) | 8 (≈ 13.5 µM) | 4 (≈ 6.77 µM) | 2 (≈ 3.39 µM) | 0.5 (≈ 0.847 µM) | 2 (≈ 3.39 µM) | – | 8 (≈ 13.5 µM) | > 128 | 2 (≈ 3.39 µM) | < 0.008 | 1 (≈ 1.69 µM) | – | 0.015 (≈ 0.0254 µM) | 0.5 (≈ 0.847 µM) | MIC (H. influ. C.L.; H. influ. strain C.L.): 0.5 µg/mL (≈ 0.847 µM); MIC (E. coli N10; E. coli strain N10, read-out: Agar Dilution MIC): 1 µg/mL (≈ 1.69 µM); MIC (E. coli EC14): 0.125 µg/mL (≈ 0.212 µM)
